Where two headings read alike, the source gives them in different places.
Legend:
[1] = test system: hamster kidney cells (BHK21); details: bioreactor with hydrogen vs without hydrogen, hydrogen supplied from day 2, culture to day 8
Description: The hamster kidney cells were incubated at 37° C. in an incubator with 5.0% CO2 using MEM culture medium (Invitrogen, Gibco Co. Ltd., New York, USA, with 10% FBS). The hamster kidney cells were incubated in a cell culture flask (175T Flask) for 3 days, and then placed in a roller bottle for expanded culture for 3 days. At the beginning of the experiment, the cells were first transferred to a tidal bioreactor (Bellocell, Taiwan) with a working volume of 500 ml of culture medium for 2 days to adapt to the environment in which the hamster kidney cells could grow to a saturated number of about 3×10^9/bottle. The electrolysis-based hydrogen generator was started on day 2 for antioxidant cell culture to regulate cellular oxidative stress.
The cells were divided into two groups to analyze the antioxidant effect. […] Cell number, hydrogen concentrations, and reactive oxygen species (ROS) tolerance responses were measured daily.
The biological carriers in the bioreactors of the experimental group and the control group were collected daily, 1 ml of Crystal Violet Dye (CVD) cell counting dye was added, and the number of cells was counted and recorded using an inverted microscope.

[2] = test system: BHK21 cells infected with bovine epidemic fever virus; details: 24 hours after virus infection; experimental group vs control group
Description: (§1) On the second day, the antioxidant auxiliary equipment was started, and hydrogen gas was supplied at the frequency of turning on the current for 15 minutes per hour. On the third day, the frequency of the current was adjusted to the frequency of turning on the current for 15 minutes and turning off the current for 15 minutes. 0.01 MOI bovine epidemic fever virus liquid (virus strain Tn88128 , References: Hsieh, Y -C.; Wang, S. -Y; Lee, Y -F.; Chen, S. -H.; Mak, P. O. T.; Chu, C. -Y. DNA sequence analysis of glycoprotein G gene of bovine ephemeral fever virus and development of a double oil emulsion vaccine against bovine ephemeral fever. J. Vet. Med. Sci. 2006, 68, 543-548) was used for infecting two groups of cells and the virus was cultured until the eighth day (day 8), the voltage was 3-5V, and the current was 0.5 A. The cell number, hydrogen concentration, viral titer and cell senescence molecular marker Cdkn2a (p16) were measured daily.
After virus infection, the cells on the carrier sheet in the bioreactors of the experimental group and the control group were collected every day, 1 ml of CVD was added, and the number of cells was calculated on that day. The formula for calculating the cell death rate is [(total number of cells on the previous day)−(total number of cells on that day)]/(total number of cells on the previous day)*100%.

[3] = test system: BHK21 cells infected with bovine epidemic fever virus; details: 24 hours after virus infection, hydrogen group vs hydrogen-free group
Description: (§2) By adding H2O2 at concentrations of 0 μM, 4 μM, 10 μM, and 20 μM, the BHK-21 cells (1×10^5/test) in the experimental group and in the control group were induced to undergo oxidation reaction. H2DCFDA was modified by cellular esterases to form a non-fluorescent H2DCF after adding H2DCFDA cell-permeant fluorescence probe.
(§3) 0.01 MOI bovine epidemic fever virus liquid (virus strain Tn88128 , References: Hsieh, Y -C.; Wang, S. -Y; Lee, Y -F.; Chen, S. -H.; Mak, P. O. T.; Chu, C. -Y. DNA sequence analysis of glycoprotein G gene of bovine ephemeral fever virus and development of a double oil emulsion vaccine against bovine ephemeral fever. J. Vet. Med. Sci. 2006, 68, 543-548) was used for infecting two groups of cells and the virus was cultured until the eighth day (day 8), the voltage was 3-5V, and the current was 0.5 A. The cell number, hydrogen concentration, viral titer and cell senescence molecular marker Cdkn2a (p16) were measured daily.
Two groups of cells infected with virus on part of the carrier sheets in the bioreactor were collected after 24 hours, and H2O2 with concentrations of 0 μM, 4 μM, 10 μM, and 20 μM was added to induce intracellular oxidation reaction, and the ROS fold changes were evaluated by the method of 2.3 in Example 2.

Cdkn2a (p16) = details: after hydrogen supply, on the third day; experimental vs control group
Description: as §1
The expression level of the cellular senescence molecule Cdkn2a (p16) is an indicator of senescent cells. […]

BHK-21 cells = details: H2O2 0, 4, 10, 20 μM; days 4, 5 and 6; hydrogen group vs hydrogen-free group
Description: The cells were divided into two groups to analyze the antioxidant effect. […] Following Example 1, when the antioxidant auxiliary equipment was turned on the second day (day 2), hydrogen gas was supplied at the frequency of turning on the current for 15 minutes per hour, the voltage was 3-5V, the constant current was 0.5 A, and the theoretical hydrogen production was about 466×10^−5 moles per hour. On the third day, the frequency was adjusted to turn on for 15 minutes and turn off for 15 minutes to continuously supply hydrogen gas until the end of the experiment. The voltage was 3˜5V, the constant current was 0.5 A, and the theoretical hydrogen production was about 933×10^−5 moles per hour. The culture medium was replaced on the third day, and the cells were cultured until the eighth day. Cell number, hydrogen concentrations, and reactive oxygen species (ROS) tolerance responses were measured daily.
as §2

[4] = test system: bovine epidemic fever virus (strain Tn88128); details: 24 hours after virus infection (the 4th day), 0.01 MOI
Description: as §3
After the virus infection, the virus tier in the virus liquid was measured by the TCID50 detection method after collecting the virus liquid in the bioreactors of the experimental group and the control group every day. The virus liquid was serially diluted 10-fold with MEM to 1/10^10th of original concentration, and then inoculated into a 96-well cell culture plate at 100 μl/well (100 μl of cell fluid was already added to each well, containing 2×10^4 BHK21 cells), the BHK21 cells were cultured in a 5% CO2 incubator at 37° C. for 3 days. After cytopathic effect (CPE) was observed and recorded, TCID50 was calculated using the Reed-Muench method.

[HH] [molecular hydrogen]
cell growth pattern / damage to cells [1]: will not cause damage to cells
cell consumption rate (cell death rate) [2]: greater than that of the control group
ROS fold change ([3]; H2O2 10 μM): significantly reduced the ROS fold change
ROS fold change ([3]; H2O2 20 μM): significantly reduced the ROS fold change
fold change of gene expression of senescence molecule Cdkn2a (p16) (Cdkn2a (p16)): decreased significantly
ROS fold change (BHK-21 cells): significantly demonstrated reduced ROS fold change
virus yield relative to hydrogen-free group [4]: 16 times

From patent US20240026554A1, “ANTIOXIDANT CULTURE METHOD AND ANTIOXIDANT AUXILIARY EQUIPMENT” (National Pingtung University of Science and Technology, priority 2022, published 2024)
